Results published in patent US20140088085A1, “Substituted Benzoazepines As Toll-Like Receptor Modulators” (ARRAY BIOPHARMA, INC, priority 2011, published 2014).
Where two headings read alike, the source gives them in different places.

Target: T1, hTLR8 (Homo sapiens, UniProt Q9NR97)
T1 construct: host or cells: HEK293 cells stably transfected with hTLR8
T1 sequence (Q9NR97 27-1041): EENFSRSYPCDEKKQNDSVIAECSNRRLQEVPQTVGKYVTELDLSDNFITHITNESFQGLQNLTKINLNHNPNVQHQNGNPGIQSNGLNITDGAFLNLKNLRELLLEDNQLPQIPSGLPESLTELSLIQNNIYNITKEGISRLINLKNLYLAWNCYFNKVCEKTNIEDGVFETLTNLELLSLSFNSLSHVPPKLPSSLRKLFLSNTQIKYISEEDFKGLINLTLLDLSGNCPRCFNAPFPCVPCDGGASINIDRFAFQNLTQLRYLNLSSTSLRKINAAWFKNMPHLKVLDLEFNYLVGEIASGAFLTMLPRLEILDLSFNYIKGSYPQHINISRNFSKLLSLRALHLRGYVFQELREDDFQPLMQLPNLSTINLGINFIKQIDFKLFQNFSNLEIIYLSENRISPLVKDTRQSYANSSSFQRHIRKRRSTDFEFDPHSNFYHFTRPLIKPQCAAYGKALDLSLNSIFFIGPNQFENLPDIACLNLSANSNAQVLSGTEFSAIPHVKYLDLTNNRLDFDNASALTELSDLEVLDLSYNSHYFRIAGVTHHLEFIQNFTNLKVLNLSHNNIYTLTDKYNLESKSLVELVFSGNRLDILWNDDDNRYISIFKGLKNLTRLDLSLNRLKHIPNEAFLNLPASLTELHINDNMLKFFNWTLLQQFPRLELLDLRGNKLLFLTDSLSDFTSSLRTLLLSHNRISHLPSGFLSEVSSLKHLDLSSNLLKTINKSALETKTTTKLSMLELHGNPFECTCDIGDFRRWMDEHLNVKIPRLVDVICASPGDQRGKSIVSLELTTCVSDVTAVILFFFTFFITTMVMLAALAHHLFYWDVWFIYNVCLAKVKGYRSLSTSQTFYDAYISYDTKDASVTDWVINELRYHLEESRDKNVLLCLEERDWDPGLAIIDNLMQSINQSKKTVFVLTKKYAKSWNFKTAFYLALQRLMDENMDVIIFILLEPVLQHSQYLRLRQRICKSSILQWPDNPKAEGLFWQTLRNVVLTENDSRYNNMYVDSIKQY
Assay: HEK-293 hTLR8 transfectant NF-κB SEAP reporter antagonist assay
Assay type: cell-based
Conditions: for inhibition at 25 µM: HEK293, TLR8 antagonist activity at 25 μM (in some cases assessed at lower concentrations)
Procedure: The HEK-293 hTLR transfectant assay employs HEK293 cells stably transfected with various hTLRs and transiently co-transfected with a plasmid containing an NF-κB driven secreted embryonic alkaline phosphate (SEAP) reporter gene. Stimulation of TLRs activates their downstream signaling pathways and induces nuclear translocation of the transcription factor NF-κB. Reporter gene activity is then measured using a spectrophotometric assay.
For the TLR8 antagonist assays, cells are transiently transfected with the reporter gene on Day 1 per the supplier's instructions. Antagonist compounds are added to the cultures on Day 2 followed by addition of a TLR8 agonist approximately 2 hours later. Cultures are incubated overnight and SEAP activity is measured on Day 3.
In a typical assay, 50,000 HEK239 hTLR8 cells are seeded per culture well and transiently transfected with the SEAP reporter gene. Antagonists are added to cultures in culture medium and […] DMSO over a concentration range of 0.1 nanomolar to 10 micromolar. TLR8 agonists are added to cultures 2 hours later at a fixed concentration (e.g., 1 micromolar or 10 micromolar of Compound A) and cultures are then incubated for 16-24 hrs at 37° C. in a humidified CO incubator. Antagonists are also evaluated for activity in the absence of agonist.
TLR8 antagonist activity at 25 μM is presented in Table 2, where + denotes a % inhibition of 20-39, ++ denotes a % inhibition of 40-59, +++ denotes a % inhibition of 60-79 and ++++ denotes a % inhibition of 80-99. In some cases, antagonist activity was assessed at lower concentrations, for example, at 8.3, 2.8, or less than 1 μM.
TLR8 antagonist activity was measured in a hTLR8 assay format, measuring IC50 values. Compounds were incubated with hTLR8 reporter cells for two hours, then 1 μM Compound A was added to induce TLR8 overnight. IC50 were then calculated.

[1] = hTLR8 reporter cells, 2 h preincubation, then 1 μM Compound A overnight, read-out: IC50
[2] = IC50, nM, vs. VTX-378 1 μM, agonist VTX-378 at 1 μM
[3] = IC50, nM, vs. VTX-378 10 μM, agonist VTX-378 at 10 μM
[4] = agonist VTX-378 at 0.5 μM, read-out: IC50, nM, vs. VTX-378 0.5 μM

In the case of CCCN(CCC)C(=O)C1=Cc2cc(OC)c(-c3ccc(C(=O)N(CCC)CCC)cc3)cc2N=C(N)C1 [Compound 12, (1E,4E)-2-Amino-8-(4-(dipropylcarbamoyl)phenyl)-7-methoxy-N,N-dipropyl-3H-benzo[b]azepine-4-carboxamide], the IC50 [1] is reported as 1000 to 5000 nM.

Compound CCCN(CCCO)C(=O)C1=Cc2cc(OC)c(-c3ccc(C(=O)N4CCCC4)cc3)cc2N=C(N)C1 [Compound 25, (1E,4E)-2-Amino-N-(3-hydroxypropyl)-7-methoxy-N-propyl-8-(4-(pyrrolidine-1-carbonyl)phenyl)-3H-benzo[b]azepine-4-carboxamide] has an inhibition at 25 µM of 20 to 39%.

CCCN(CCC)C(=O)C1=Cc2ccc(-c3ccc(C(=O)N4CCCC4)cc3)cc2N=C(NN)C1 [Compound 33, (1E,4E)-2-Hydrazinyl-N,N-dipropyl-8-(4-(pyrrolidine-1-carbonyl)phenyl)-3H-benzo[b]azepine-4-carboxamide] gave an inhibition at 25 µM of 80 to 99% and an IC50 [1] of 1000 to 5000 nM.

For CCCN(CCCO)C(=O)C1=Cc2ccc(-c3ccc(C(=O)N4CCCC4)cc3)cc2N=C(NC)C1 [Compound 46, (1E,4E)-N-(3-Hydroxypropyl)-2-(methylamino)-N-propyl-8-(4-(pyrrolidine-1-carbonyl)phenyl)-3H-benzo[b]azepine-4-carboxamide], the inhibition at 25 µM was 40 to 59%.

In the case of CCCN(CCCO)C(=O)C1=Cc2ccc(-c3ccc(C(=O)N4CCCC4)cc3)cc2N=C(NCCN(C)C)C1 [Compound 47, (1E,4E)-2-(2-(Dimethylamino)ethylamino)-N-(3-hydroxypropyl)-N-propyl-8-(4-(pyrrolidine-1-carbonyl)phenyl)-3H-benzo[b]azepine-4-carboxamide], the inhibition at 25 µM is reported as 20 to 39%.

CCOC(=O)C1=Cc2cc(-c3ccc(C(=O)N4CCCC4)cc3)ccc2N=C(N)C1 [Compound 63, (1E,4E)-Ethyl 2-amino-7-(4-(pyrrolidine-1-carbonyl)phenyl)-3H-benzo[b]azepine-4-carboxylate] showed an inhibition at 25 µM of 80 to 99% and an IC50 [1] of less than 1000 nM.

For CCCN(CCC)C(=O)C1=Cc2cc(OC)c(-c3ccc(C(=O)N4CCCC4)cc3)cc2N=C(N)C1 [Compound 65, (1E,4E)-2-Amino-7-methoxy-N,N-dipropyl-8-(4-(pyrrolidine-1-carbonyl)phenyl)-3H-benzo[b]azepine-4-carboxamide], the inhibition at 25 µM was 60 to 79% and the IC50 [1] was 5000 to 10000 nM.

For CCCN(CCC)C(=O)C1=Cc2cc(OC)ccc2N=C(N)C1 [Compound 70, (1E,4E)-2-amino-7-methoxy-N,N-dipropyl-3H-benzo[b]azepine-4-carboxamide], the inhibition at 25 µM was 40 to 59%.

CCOC(=O)C1=Cc2cc(OCc3ccccn3)ccc2N=C(N)C1 [Compound 74, (1E,4E)-ethyl 2-amino-7-(pyridin-2-ylmethoxy)-3H-benzo[b]azepine-4-carboxylate] gave an inhibition at 25 µM of 60 to 79% and an IC50 [1] of 1000 to 5000 nM.

In the case of CCOC(=O)C1=Cc2cc(OC)c(-c3ccc(C(=O)N4CCCC4)cc3)cc2N=C(N)C1 [Compound 76, (1E,4E)-ethyl 2-amino-7-methoxy-8-(4-(pyrrolidine-1-carbonyl)phenyl)-3H-benzo[b]azepine-4-carboxylate], the inhibition at 25 µM is reported as 80 to 99% and the IC50 [1] is reported as no less than 10000 nM.

With CCOC(=O)N1Cc2ccc(-c3ccc(C(=O)N4CCCC4)cc3)cc2N=C(N)C12CC2 [Compound 88, (E)-Ethyl 2-amino-8-(4-(pyrrolidine-1-carbonyl)phenyl)spiro[benzo[e][1,4]diazepine-3,1′-cyclopropane]-4(5H)-carboxylate] the inhibition at 25 µM was 20 to 39% and the IC50 [1] was 5000 to 10000 nM.

CCOC(=O)C1=Cc2ccc(-c3ccc(C(=O)N4CCCC4)cc3)cc2N2CCN=C2C1 [Compound 90, (E)-ethyl 9-(4-(pyrrolidine-1-carbonyl)phenyl)-2,4-dihydro-1H-benzo[f]imidazo[1,2-a]azepine-5-carboxylate] showed an inhibition at 25 µM of 60 to 79%.

CCOC(=O)C1=Cc2cc(-c3ccc(C(=O)N4CCCC4)cc3)ccc2-n2ccnc2C1 [Compound 2919] gave an IC50 [2] of no less than 10000 nM and an IC50 [3] of no less than 10000 nM.

CCOC(=O)C1=Cc2cc(-c3ccc(C(=O)N4CCCC4)cc3)ccc2N=C(NC)C1 [Compound 2922] was tested, and the IC50 [2] was 1000 to 10000 nM and the IC50 [3] was no less than 10000 nM.

CCOC(=O)C1=Cc2cc(-c3ccc(C(=O)N4CCCC4)cc3)ccc2N=C(NN(C)C)C1 [Compound 2926] showed an IC50 [2] of 1000 to 10000 nM and an IC50 [3] of no less than 10000 nM.

For CCOC(=O)C1=Cc2cc(-c3ccc(C(=O)N4CCCC4)cc3)ccc2N=C(N(C)C)C1 [Compound 2929], the IC50 [2] was no less than 10000 nM and the IC50 [3] was no less than 10000 nM.

For COC(=O)C1=Cc2cc(-c3ccc(C(=O)N4CCCC4)cc3)ccc2N=C(N)C1 [Compound 2931], the IC50 [2] was less than 1000 nM and the IC50 [3] was 1000 to 10000 nM.

Compound CCOC(=O)N1CC(N)=Nc2ccc(-c3ccc(C(=O)N4CCCC4)cc3)cc2C1 [Compound 2954] has an IC50 [2] of no less than 10000 nM and an IC50 [3] of no less than 10000 nM.

Work on CCOC(=O)C1=Cc2cc(-c3ccc(C(=O)N4CCCC4)cc3)ccc2N=C(NN)C1 [Compound 2962] yielded an IC50 [2] of no less than 10000 nM and an IC50 [3] of no less than 10000 nM.

For CCOC(=O)C1=Cc2cc(-c3ccc(C(=O)N4CCCC4)cc3)ccc2N2CCN=C2C1 [Compound 2966], the IC50 [2] was no less than 10000 nM and the IC50 [3] was no less than 10000 nM.

For CCOC(=O)C1=Cc2cc(-c3ccc(C(=O)N4CCCC4)cc3)ccc2-n2cnnc2C1 [Compound 2976], the IC50 [2] was no less than 10000 nM and the IC50 [3] was no less than 10000 nM.

CC(C)OC(=O)C1=Cc2cc(-c3ccc(C(=O)N4CCCC4)cc3)ccc2N=C(N)C1 [Compound 2984] was tested, and the IC50 [2] was less than 1000 nM and the IC50 [3] was 1000 to 10000 nM.

CN(C)C(=O)C1=Cc2cc(-c3ccc(C(=O)N4CCCC4)cc3)ccc2N=C(N)C1 [Compound 2986] showed an IC50 [2] of less than 1000 nM and an IC50 [3] of no less than 10000 nM.

Work on CCOC(=O)C1=Cc2cc(-c3ccc(C(=O)N4CCCC4)cc3)ccc2-n2c(n[nH]c2=O)C1 [Compound 3000] yielded an IC50 [2] of no less than 10000 nM and an IC50 [3] of no less than 10000 nM.

Work on CCOC(=O)N1Cc2cc(-c3ccc(C(=O)N4CCCC4)cc3)ccc2N=C(N)C12CC2 [Compound 3020] yielded an IC50 [2] of no less than 10000 nM and an IC50 [3] of no less than 10000 nM.

In the case of CCOC(=O)C1=Cc2cc(-c3ccc(C(=O)N4CCCC4)cc3)ccc2N=C(N)C1C (stereo not shown) [Compound 3173], the IC50 [2] is reported as less than 1000 nM and the IC50 [4] is reported as less than 1000 nM.

Compound CCOC(=O)C1=Cc2cc(-c3ccc(C(=O)N4CCCC4)cc3)ccc2N=C(N)C12CC2 [Compound 3260] has an IC50 (IC50, nM, vs. 3M002 10 μM, agonist 3M002 at 10 μM) of less than 1000 nM, an IC50 [2] of less than 1000 nM and an IC50 [4] of less than 1000 nM.
